Values quoted from earlier work in patent publication US20240261236A1, “METHODS OF USING NMDA RECEPTOR ANTAGONISTS” (Seelos Therapeutics, Inc., priority 2021, published 2024).

Key:
[1] = Leung and Baillie 1986; cited from earlier work
[2] = 56 mg or 84 mg dose; Spravato label; cited from earlier work
[3] = 56 mg or 84 mg doses; Spravato label; cited from earlier work
NMDA receptor = settings: binds to the NMDA receptor; Moaddel et al. 2013; cited from earlier work

Compound: NC1(c2ccccc2Cl)CCCC(O)C1=O (centres unmarked) [6-hydroxynorketamine]
- anesthetic activity [1]: no anesthetic or locomotor activity

Compound: CN[C@]1(c2ccccc2Cl)CCCCC1=O [(S)-ketamine, (S)-2-(2-chlorophenyl)-2-(methylamino)cyclohexanone]
- subjects who developed sedation [2]: 48-61%
- patients who developed dissociative changes on the CADSS assessment [3]: 61%-69%

Compound: N[C@]1(c2ccccc2Cl)CCC[C@H](O)C1=O [(2S,6S)-hydroxynorketamine]
- Ki (NMDA receptor): ~21.2 µM

Compound: N[C@@]1(c2ccccc2Cl)CCC[C@@H](O)C1=O [(2R,6R)-hydroxynorketamine]
- Ki (NMDA receptor): > 100 µM

Compound: N[C@]1(c2ccccc2Cl)CCCCC1=O [(S)-norketamine]
- Ki (NMDA receptor): ~2.25 µM

Compound: NC1(c2ccccc2Cl)CCCCC1=O (centres unmarked) [norketamine]
- anesthetic activity [1]: anesthetic activity

Compound: N[C@@]1(c2ccccc2Cl)CCCCC1=O [(R)-norketamine]
- Ki (NMDA receptor): ~26.5 µM
